Common to all, as to format: cell-based
One test deals with A549. Put plainly: In vitro inhibition test for cancer cell proliferation (MTT), A549. The settings on record: unit inferred.
For a further test, the system named is HeLa. Put plainly: In vitro inhibition test for cancer cell proliferation (MTT), HeLa. To be noted: 24 h or 48 h after addition, unit inferred.
The next test concerns MCF-7. Put plainly: In vitro inhibition test for cancer cell proliferation (MTT), MCF-7. The settings on record: unit inferred.
The subject of a further test is L929. Put plainly: In vitro cell proliferation inhibition test (MTT), L929. The settings on record: unit inferred.
Where [1] appears, read: Homo sapiens, A549, 24 h or 48 h after addition.
The mark [2] stands for this setting: Homo sapiens, MCF7, 24 h or 48 h after addition.
The mark [3] stands for this setting: Mus musculus, L929, 24 h or 48 h after addition.

24 molecules from patent US20250163002A1, “FUSED QUINONOXIME IMIDAZOLE, ONIUM DERIVATIVES THEREOF, PREPARATION AND USE THEREOF” (SHANGHAI JIAO TONG UNIVERSITY, priority 2022, published 2025) can be followed below.

pIC50: −log10 of the molar value. Where only a bound is given, the exact number is not on record here.

For orientation: pIC50 means the IC50 on a negative log10 scale, so that one unit is a factor of ten. As to `C[n+]1cn(Cc2ccccc2)c2c1/C(=N/O)c1ccccc1C2=O` [Compound 102, (E)-1-benzyl-4-(hydroxylimino)-3-methyl-9-oxo-4,9-dihydro-1H-naphthol[2,3-d]imidazole-3-iodide], the pIC50 is 6.20 in the test on A549 (24 h or 48 h after addition), 5.98 in the test on HeLa, 6.05 with MCF-7 (24 h or 48 h after addition) and 4.43 in the test with L929 (24 h or 48 h after addition).

`CCCCn1c[n+](C)c2c1C(=O)c1ccccc1C2=NOCC` [Compound 120, (E) and (Z)-1-butyl-4-(ethoxylimino)-3-methyl-9-oxo-4,9-dihydro-1H-naphthol[2,3-d]imidazole-3-iodide]: the pIC50 in the test with A549 (24 h or 48 h after addition) is 6.16; in the test on HeLa it was 4.59; in the test on MCF-7 (24 h or 48 h after addition), 4.89; with L929 (24 h or 48 h after addition) it was less than 4.00.

For the molecule `COc1ccc(CON=C2c3ccccc3C(=O)c3c2[n+](C)cn3C)cc1` [Compound 133, (E) and (Z)-4-(((4-methoxybenzyl)oxy)imino)-1,3-dimethyl-9-oxo-4,9-dihydro-1H-naphthol[2,3-d]imidazole-3-iodide], the pIC50 is 7.10 in the test on A549 (24 h or 48 h after addition), 4.62 in the test on HeLa, 4.75 in the test on MCF-7 (24 h or 48 h after addition) and 4.80 in the test on L929 (24 h or 48 h after addition).

On to `Cn1c[n+](C)c2c1C(=O)c1ccccc1/C2=N\OCC1OCCO1` [Compound 143, (E)-4-(((1,3-dioxoheterocycle-2-yl)methoxy)imino)-1,3-dimethyl-9-oxo-4,9-dihydro-1H-naphthol[2,3-d]imidazole-3-iodide], for which the negative logarithm of the IC50 (pIC50) with A549 (24 h or 48 h after addition) is 7.52; in the test with HeLa, 4.59; with MCF-7 (24 h or 48 h after addition) it was 4.46; with L929 (24 h or 48 h after addition), 4.46.

For the molecule `Cn1c[n+](C)c2c1C(=O)c1ccccc1/C2=N\O` [Compound 91, (E)-1-methyl-4-(hydroxylimino)-3-methyl-9-oxo-4,9-dihydro-1H-naphthol[2,3-d]imidazole-3-iodide], the pIC50 was 6.28 in the test with A549 (24 h or 48 h after addition), 6.17 in the test with HeLa, 6.08 in the test on MCF-7 (24 h or 48 h after addition) and 5.33 in the test on L929 (24 h or 48 h after addition).

With `C[n+]1cn(-c2ccccc2F)c2c1/C(=N/O)c1ccccc1C2=O` [Compound 109, (E)-1-(2-fluorophenyl)-4-(hydroxylimino)-3-methyl-9-oxo-4,9-dihydro-1H-naphthol[2,3-d]imidazole-3-iodide], the negative-log IC50 (pIC50) in the test on A549 (24 h or 48 h after addition) is 4.95; in the test with HeLa, 4.30; in the test with MCF-7 (24 h or 48 h after addition), 4.24; in the test with L929 (24 h or 48 h after addition) it was less than 4.00.

Take `C[n+]1cn(Cc2ccccc2F)c2c1/C(=N/O)c1ccccc1C2=O` [Compound 112, (E)-1-(2-fluorobenzyl)-4-(hydroxylimino)-3-methyl-9-oxo-4,9-dihydro-1H-naphthol[2,3-d]imidazole-3-iodide]: the pIC50 is 6.24 in the test with A549 (24 h or 48 h after addition), 5.11 with HeLa, 5.43 with MCF-7 (24 h or 48 h after addition) and 4.56 in the test with L929 (24 h or 48 h after addition).

Turning to `COc1ccc(Cn2c[n+](C)c3c2C(=O)c2ccccc2/C3=N\O)cc1` [Compound 115, (E)-4-(hydroxylimino)-1-(4-methoxybenzyl)-3-methyl-9-oxo-4,9-dihydro-1H-naphthol[2,3-d]imidazole-3-iodide], the pIC50 was 6.89 in the test with A549 (24 h or 48 h after addition), 5.60 in the test with HeLa, 5.79 in the test with MCF-7 (24 h or 48 h after addition) and 4.75 in the test on L929 (24 h or 48 h after addition).

With `CCn1c[n+](C)c2c1C(=O)c1ccccc1/C2=N\O` [Compound 92, (E)-1-ethyl-4-(hydroxylimino)-3-methyl-9-oxo-4,9-dihydro-1H-naphthol[2,3-d]imidazole-3-iodide], the pIC50 is 6.27 with A549 (24 h or 48 h after addition), 5.79 in the test with HeLa, 6.03 in the test with MCF-7 (24 h or 48 h after addition) and 4.87 in the test on L929 (24 h or 48 h after addition).

In the case of `CCCCn1c[n+](C)c2c1C(=O)c1ccccc1/C2=N\O` [Compound 94, (E)-1-butyl-4-(hydroxylimino)-3-methyl-9-oxo-4,9-dihydro-1H-naphthol[2,3-d]imidazole-3-iodide], the pIC50 in the test with A549 (setting [1]) was 6.17; with HeLa (Homo sapiens, HeLa), 5.84; in the test with MCF-7 (setting [2]) it was 6.08; in the test on L929 (setting [3]), 4.41.

With `COCCO/N=C1\c2ccccc2C(=O)c2c1[n+](C)cn2C` [Compound 144, (E)-4-((2-methoxyethoxy)imino)-1,3-dimethyl-9-oxo-4,9-dihydro-1H-naphthol[2,3-d]imidazole-3-iodide], the pIC50 with A549 (24 h or 48 h after addition) is 7.22; in the test on HeLa, 4.63; in the test on MCF-7 (24 h or 48 h after addition), 4.48; with L929 (24 h or 48 h after addition), 4.33.

As to `CCOC(=O)Cn1c[n+](C)c2c1C(=O)c1ccccc1/C2=N\O` [Compound 103, (E)-1-(2-ethoxy-2-ethoxy)-4-(hydroxylimino)-3-methyl-9-oxo-4,9-dihydro-1H-naphthol[2,3-d]imidazole-3-iodide], the pIC50 in the test on A549 (24 h or 48 h after addition) was 6.22; in the test on HeLa, 5.56; with MCF-7 (24 h or 48 h after addition), 5.79; in the test on L929 (24 h or 48 h after addition), less than 4.00.

Turning to `CCCCn1c2c([n+](C)c1-c1cc(OC)c(OC)c(OC)c1)C(=NOCc1ccccc1)c1ccccc1C2=O` [Compound 148, (E) and (Z)-4-((benzyloxy)imino)-1-butyl-3-methyl-9-oxo-2-(3,4,5-trimethoxyphenyl)-4,9-dihydro-1H-naphthol[2,3-d]imidazole-3-iodide], the negative logarithm of the IC50 (pIC50) in the test with A549 (24 h or 48 h after addition) was 7.05; with HeLa, 4.63; with MCF-7 (24 h or 48 h after addition), 4.46; in the test on L929 (24 h or 48 h after addition), 4.36.

As to `Cn1c[n+](C)c2c1C(=O)c1ccccc1C2=NOCc1ccc(Cl)cc1` [Compound 134, (E) and (Z)-4-(((4-chlorobenzyl)oxy)imino)-1,3-dimethyl-9-oxo-4,9-dihydro-1H-naphthol[2,3-d]imidazole-3-iodide], the pIC50 with A549 (24 h or 48 h after addition) was 7.15; in the test on HeLa, 4.76; in the test with MCF-7 (24 h or 48 h after addition), 4.59; in the test with L929 (24 h or 48 h after addition), 5.31.

Turning to `COCCOCCOCCO/N=C1\c2ccccc2C(=O)c2c1[n+](C)cn2C` [Compound 147, (E) and (Z)-4-((2-(2-(2-methoxyethoxy)ethoxy)ethoxy)imino)-1,3-dimethyl-9-oxo-4,9-dihydro-1H-naphthol[2,3-d]imidazole-3-iodide], the pIC50 was 7.70 with A549 (setting [1]); 4.88 in the test with HeLa (Homo sapiens, HeLa); 4.57 with MCF-7 (setting [2]); 4.80 in the test with L929 (setting [3]).

Take `Cn1c[n+](C)c2c1C(=O)c1cc3ccccc3cc1C2=NOCc1ccccc1` [Compound 149, (E) and (Z)-4-((benzyloxy)imino)-1,3-dimethyl-11-oxo-4, 11-dihydro-1H-anthracene[2,3-d]imidazole-3-iodide]: the pIC50 in the test on A549 (24 h or 48 h after addition) is 6.48; in the test on HeLa, 4.17; with MCF-7 (24 h or 48 h after addition), 4.12; in the test on L929 (24 h or 48 h after addition), less than 4.00.

Regarding `Cn1c[n+](C)c2c1C(=O)c1ccccc1C2=NOCc1ccccc1` [Compound 139, (E) and (Z)-4-((benzyloxy)imino)-1,3-dimethyl-9-oxo-4,9-dihydro-1H-naphthol[2,3-d]imidazole-3-p-toluenesulfonamide], the pIC50 is 8.30 in the test on A549 (24 h or 48 h after addition), 5.17 in the test on HeLa, 5.07 with MCF-7 (24 h or 48 h after addition) and 4.70 in the test on L929 (24 h or 48 h after addition).

As for `Cn1c[n+](C)c2c1C(=O)c1ccccc1C2=NOCc1ccccc1` [Compound 138, (E) and (Z)-4-((benzyloxy)imino)-1,3-dimethyl-9-oxo-4,9-dihydro-1H-naphthol[2,3-d]imidazole-3-iodide], the pIC50 with A549 (24 h or 48 h after addition) was 8.40; in the test with HeLa, 5.38; with MCF-7 (24 h or 48 h after addition), 5.23; in the test on L929 (24 h or 48 h after addition) it was 4.59.

Regarding `C[n+]1cn(-c2ccccc2)c2c1/C(=N/O)c1ccccc1C2=O` [Compound 104, (E)-4-(hydroxylimino)-3-methyl-9-oxo-1-phenyl-4,9-dihydro-1H-naphthol[2,3-d]imidazole-3-iodide], the pIC50 in the test with A549 (24 h or 48 h after addition) was 4.91; in the test with HeLa, 4.90; in the test on MCF-7 (24 h or 48 h after addition) it was 5.84; in the test with L929 (24 h or 48 h after addition) it was less than 4.00.

Take `CCCCn1c[n+](C)c2c1C(=O)c1ccccc1C2=NOCc1ccccc1` [Compound 121, (E) and (Z)-4-((benzyloxy)imino)-1-butyl-3-methyl-9-oxo-4,9-dihydro-1H-naphthol[2,3-d]imidazole-3-iodide]: the pIC50 is 7.05 in the test with A549 (24 h or 48 h after addition), 4.55 in the test on HeLa, 5.17 in the test with MCF-7 (24 h or 48 h after addition) and 4.21 with L929 (24 h or 48 h after addition).

Take `Cn1c[n+](C)c2c1C(=O)c1ccccc1C2=NOCc1ccc(C(F)(F)F)cc1` [Compound 135, (E) and (Z)-1,3-dimethyl-9-oxo-4-(((4-(trifluoromethyl)benzyl)oxy)imino)-4,9-dihydro-1H-naphthol[2,3-d]imidazole-3-iodide]: the pIC50 in the test on A549 (24 h or 48 h after addition) is 6.80; with HeLa it was 4.34; in the test with MCF-7 (24 h or 48 h after addition) it was 4.46; in the test with L929 (24 h or 48 h after addition), 5.39.

Consider `Cn1c[n+](C)c2c1C(=O)c1cccc([N+](=O)[O-])c1/C2=N\O` [Compound 118, (E)-4-(hydroxylimino)-1,3-dimethyl-5-nitro-9-oxo-4,9-dihydro-1H-naphthol[2,3-d]imidazole-3-iodide], for which the pIC50 in the test with A549 (24 h or 48 h after addition) was 6.27; in the test with HeLa, 6.11; in the test with MCF-7 (24 h or 48 h after addition), 6.05; in the test on L929 (24 h or 48 h after addition), 4.89.

With `CCCn1c[n+](C)c2c1C(=O)c1ccccc1/C2=N\O` [Compound 93, (E)-4-(hydroxylimino)-3-methyl-9-oxo-1-propyl-4,9-dihydro-1H-naphthol[2,3-d]imidazole-3-iodide], the pIC50 in the test on A549 (24 h or 48 h after addition) was 5.99; in the test on HeLa, 5.66; in the test with MCF-7 (24 h or 48 h after addition), 5.84; with L929 (24 h or 48 h after addition) it was 4.49.

Turning to `Cn1c[n+](C)c2c1C(=O)c1ccccc1C2=NOCC1CC1` [Compound 131, (E) and (Z)-4-((cyclopropylmethoxy)imino)-1,3-dimethyl-9-oxo-4,9-dihydro-1H-naphthol[2,3-d]imidazole-3-iodide], the pIC50 was 7.15 with A549 (24 h or 48 h after addition), 4.68 in the test on HeLa, 5.00 in the test with MCF-7 (24 h or 48 h after addition) and 4.61 with L929 (24 h or 48 h after addition).
